According to US8901276B2, “Peptide reagents and methods for detection of colon dysplasia” (The Regents of the University of Michigan, priority 2010, dated 2014):
Where no end group is shown, it is not given here.

What was measured:
[1] = tested on: excised polyps; assay: Ex vivo peptide binding to excised polyps; set-up: species or system CPC;Apc mice; details: 100 μM, 5 min
Procedure: Polyps from CPC;Apc mice (n=3 mice, 5 polyp pairs) were excised and washed 3× in PBS. The polyps were incubated in 100 μM peptide solution for 5 minutes and subsequently washed 3× with 1×PBS. Polyps were grossly imaged using the small animal endoscope to view binding to the polyp as a whole. Pairs of polyps (one candidate, one control) were imaged at a time to allow for the calculation of a candidate peptide to Control peptide 1 binding ratio for each pair analyzed. An average binding ratio was calculated ± one standard deviation. A similar procedure to determine mean grey scale values for image analysis was followed for the ex vivo polyps as described above for the in vivo polyps.

[2] = tested on: adenomatous polyps; assay: Confocal microscopy of polyp biopsy after in vivo peptide administration; set-up: species or system CPC;Apc mice; details: biopsy after in vivo FITC-peptide administration
Procedure: Preferential binding of Peptide compared to the Control peptide 1 on the adenomatous polyps was confirmed with confocal microscopy. A polyp biopsy was taken after 5′-FITC-labeled peptide administration in vivo, incubated in 1 μg/mL Hoechst dye for 5 minutes to stain living nuclei, rinsed 3× with 1×PBS and imaged on a Leica Confocal Microscope (Leica Microsystems, Bannockburn, Ill.).

Question: What does the source list for “QPIHPNNM (also: FITC or Cy5.5 label) [Peptide 1, tested FITC- or Cy5.5-labeled]”?
Answer: increase in binding compared to Control peptide 1 [1]: ~2 fold; binding to adenomas, confocal images of biopsied polyps [2]: bound more to adenomas than the Control peptide 1
